Assay results from ChEMBL document CHEMBL4616590, “Therapeutic significance of β-glucuronidase activity and its inhibitors: A review” (Eur J Med Chem, 2020).

Target: T1, Beta-glucuronidase (Homo sapiens) (UniProt P08236)
T1 sequence (whole entry): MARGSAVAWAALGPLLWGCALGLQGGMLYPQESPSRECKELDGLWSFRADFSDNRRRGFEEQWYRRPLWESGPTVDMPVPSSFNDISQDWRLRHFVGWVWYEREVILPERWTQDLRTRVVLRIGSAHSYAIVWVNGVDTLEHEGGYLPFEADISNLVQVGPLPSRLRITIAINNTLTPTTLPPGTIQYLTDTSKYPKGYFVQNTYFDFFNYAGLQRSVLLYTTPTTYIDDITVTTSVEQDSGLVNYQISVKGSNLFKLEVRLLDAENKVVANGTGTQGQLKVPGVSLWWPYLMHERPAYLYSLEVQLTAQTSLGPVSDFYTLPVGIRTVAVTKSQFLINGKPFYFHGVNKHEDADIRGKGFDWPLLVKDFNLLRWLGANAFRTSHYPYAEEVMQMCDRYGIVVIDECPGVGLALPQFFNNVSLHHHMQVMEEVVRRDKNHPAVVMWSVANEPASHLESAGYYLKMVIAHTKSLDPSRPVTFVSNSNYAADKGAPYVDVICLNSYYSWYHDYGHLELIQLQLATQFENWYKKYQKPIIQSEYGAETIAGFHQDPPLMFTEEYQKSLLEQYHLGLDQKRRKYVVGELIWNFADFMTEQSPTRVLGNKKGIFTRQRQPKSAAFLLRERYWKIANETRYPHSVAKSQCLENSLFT
Assay: Potency index, ratio of Silymarin IC50 to test compound IC50 for beta-glucuronidase (unknown origin)
Settings: not given

SMILES	Ratio IC50
O=c1c2cc(O)c(O)cc2oc2cc(O)c([C@@H]3O[C@H](CO)[C@@H](O)[C@H](O)[C@H]3O)c(O)c12	50

Target: not listed separately
Assay: Inhibition of bovine liver beta-glucuronidase using 4-nitrophenyl b-D-glucuronopyranoside as substrate after 30 mins
Design: species or system Bos taurus
Settings: not given

SMILES	IC50
O=C(O)[C@H]1NC(=O)[C@H](O)[C@@H](O)[C@H]1O	32 µM
COC(=O)[C@]1(Cc2ccc(O)c(C=O)c2)OC(=O)C(O)=C1c1ccc(O)cc1	6.2 µM
O=C(O)[C@H]1NC(=O)[C@H](O)[C@@H](O)[C@@H]1O	31 µM
C[C@]12C=C/C(=N\O)C=C1CC[C@H]1[C@@H]3[C@@H](O)C[C@](C)(O)[C@@]3(C)CC[C@@H]12	49 µM

System: not listed separately
Assay: Inhibition of Escherichia coli K-12 beta-glucuronidase using PNPG as substrate preincubated for 5 mins followed by substrate addition measured after 30 mins
Settings: not given

SMILES	IC50
O=c1c(O)c(-c2ccc(O)c(O)c2)oc2cc(O)cc(O)c12 [QUERCETIN]	5.76 to 29.6 µM
O=C(O)[C@@H](O)[C@H]1OC(=O)[C@H](O)[C@H]1O [D-SACCHARIC ACID 1,4-LACTONE]	36.1 µM
O=c1cc(-c2ccc(O)cc2)oc2cc(O)c(O)c(O)c12 [SCUTELLAREIN]	5.76 µM

Target: T1, Beta-glucuronidase (Homo sapiens)
Assay: Inhibition of beta-glucuronidase (unknown origin) relative to control
Settings: concentration not given here

SMILES	inhibition
O=C(O)[C@@H](O)[C@H](O)[C@H](O)[C@@H](O)C(=O)O	99%
O=C1CCCCCC/C=C/CCCCCCC1	99%

Target: T1, Beta-glucuronidase (Homo sapiens)
Assay: Inhibition of beta-glucuronidase (unknown origin) at 1 uM relative to control
Settings: not given

SMILES	inhibition
CCOC(=O)[C@@H]1Oc2cc(C)n(Cc3ccc(OC)cc3)c(=O)c2[C@H]1c1cc(OC)c(OC)cc1OC	> 70%
CCC(=O)[C@H]1Oc2cc(C)n(Cc3ccc(OC)cc3)c(=O)c2[C@H]1c1ccc(C(F)(F)F)cc1C(F)(F)F	75%
CCOC(=O)[C@@H]1Oc2cc(C)n(Cc3ccccc3)c(=O)c2[C@H]1c1ccc(F)cc1	> 70%
CCOC(=O)[C@@H]1Oc2cc(C)n(Cc3ccccc3)c(=O)c2[C@H]1c1cccs1	< 45%
CCOC(=O)[C@@H]1Oc2cc(C)n(Cc3ccccc3)c(=O)c2[C@H]1c1ccc(C)cc1	> 70%
CCOC(=O)[C@@H]1Oc2cc(C)n(Cc3ccc(OC)cc3)c(=O)c2[C@H]1c1ccc(C(F)(F)F)cc1	> 70%
CCOC(=O)[C@@H]1Oc2cc(C)n(Cc3ccc(OC)cc3)c(=O)c2[C@H]1c1ccc(C(F)(F)F)cc1C(F)(F)F	> 70%
CCOC(=O)[C@@H]1Oc2cc(C)n(Cc3ccccc3)c(=O)c2[C@H]1c1ccc(Br)cc1	> 70%
CCOC(=O)[C@@H]1Oc2cc(C)n(Cc3ccccc3)c(=O)c2[C@H]1c1ccc(OC)cc1	> 70%
CCOC(=O)[C@@H]1Oc2cc(C)n(Cc3ccccc3)c(=O)c2[C@H]1c1ccc(Cl)cc1Cl	> 70%
CCOC(=O)[C@@H]1Oc2cc(C)n(Cc3ccccc3)c(=O)c2[C@H]1c1cc(OC)c(OC)cc1OC	> 70%
CCOC(=O)[C@@H]1Oc2cc(C)n(Cc3ccccc3)c(=O)c2[C@H]1c1ccc(O)cc1	> 70%
CCOC(=O)[C@@H]1Oc2cc(C)n(Cc3ccccc3)c(=O)c2[C@H]1c1ccccc1	> 70%
CCOC(=O)[C@@H]1Oc2cc(C)n(Cc3ccccc3)c(=O)c2[C@H]1c1ccc(Cl)cc1	> 70%
CCOC(=O)[C@@H]1Oc2cc(C)n(Cc3ccccc3)c(=O)c2[C@H]1c1ccco1	< 45%
CCOC(=O)[C@@H]1Oc2cc(C)n(Cc3ccccc3)c(=O)c2[C@H]1c1cccnc1	< 45%
CCOC(=O)[C@@H]1Oc2cc(C)n(Cc3ccccc3)c(=O)c2[C@H]1c1ccc([N+](=O)[O-])cc1	> 70%

Target: not listed separately
Assay: Inhibition of bacterial beta-glucuronidase using p-nitrophenyl-beta-D-glucuronide as substrate after 1 hr
Design: species or system Bacteria
Settings: not given

SMILES	IC50
CNc1ccc2c(n1)sc1c(N3CCNCC3)nc(NC)nc12	0.08 µM
C1CCc2c(c(N3CCOCC3)nc3sc4c(N5CCNCC5)nnnc4c23)C1	0.12 µM

Target: T2, Beta-glucuronidase (Rattus norvegicus) (UniProt P06760)
T2 sequence (whole entry): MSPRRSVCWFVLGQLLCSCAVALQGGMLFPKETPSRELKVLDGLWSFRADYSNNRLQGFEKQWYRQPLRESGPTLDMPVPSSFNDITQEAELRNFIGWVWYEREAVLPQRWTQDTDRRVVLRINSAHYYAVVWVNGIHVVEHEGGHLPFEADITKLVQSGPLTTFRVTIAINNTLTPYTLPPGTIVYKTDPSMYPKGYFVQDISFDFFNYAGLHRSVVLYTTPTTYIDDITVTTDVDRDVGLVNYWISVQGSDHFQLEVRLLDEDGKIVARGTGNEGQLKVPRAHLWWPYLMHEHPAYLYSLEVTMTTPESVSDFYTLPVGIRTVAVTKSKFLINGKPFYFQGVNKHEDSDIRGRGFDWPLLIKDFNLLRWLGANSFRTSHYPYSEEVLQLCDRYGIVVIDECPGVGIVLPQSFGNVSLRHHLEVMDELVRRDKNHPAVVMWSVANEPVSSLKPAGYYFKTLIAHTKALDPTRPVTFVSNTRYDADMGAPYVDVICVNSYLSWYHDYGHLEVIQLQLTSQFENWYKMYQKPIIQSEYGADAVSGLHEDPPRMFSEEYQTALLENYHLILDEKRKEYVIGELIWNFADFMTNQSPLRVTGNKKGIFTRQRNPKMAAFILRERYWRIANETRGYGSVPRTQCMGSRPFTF
Assay: Inhibition of rat neutrophils beta-glucuronidase at 100 uM relative to control
Settings: not given

SMILES	inhibition
C=C(C)C(O)CC/C(C)=C/Cc1c(O)cc(O)cc1-c1cc2ccc(O)cc2o1 (stereo unspecified)	65.9%
O=c1cc(-c2ccc(O)cc2O)oc2cc(O)cc(O)c12	67.7%
